The source of these data is patent US20070281947A1, “Diarylmethylpiperazines As Prophylactic Or Therapeutic Agents For Viral Myocarditis” (priority 2002, published 2007).

Structures are written as SMILES. Marks after values point to notes of the source that are not given here.

Assay type in all cases: in vivo
Assay [1] has as its system EMC virus. Nature of the assay: Effect on histopathological changes in heart muscle in a cardiac insufficiency model induced by EMC viral myocarditis in mice. The following applies: for Heart weight (g) (day 5) / Heart weight/body weight ratio (day 5): DBA/2 mice; for Heart weight (g) (day 5): EMC virus 1 pfu/mouse i.p.; for Heart weight/body weight ratio (day 5): EMC virus. The procedure: A comparative study was conducted on the effect of cetirizine on histopathological changes in heart muscle in a cardiac insufficiency model induced by EMC viral myocarditis in mice.
28-day-old, male DBA/2 mice were divided into three groups, and EMC virus was inoculated intraperitoneally to all groups at 1 pfu/mouse (day 0) in the same manner as Test Example 1.
Following inoculation, similar to Example 1, a control group given only distilled water to serve as a control (n=7), a cetirizine low dose group to which cetirizine was administered at a dose of 1 mg/kg/day (n=10), and a cetirizine high dose group to which cetirizine was administered at 10 mg/kg/day (n=7), were forcibly fed once a day using a cannula in the same manner as Test Example 1 for 5 consecutive days.
After five days, the hearts of the animals were removed, stained with hematoxylin-eosin stain after fixing with formalin, and scored for the two parameters of heart muscle cellular necrosis and inflammatory cellular invasion in the manner described below (documents such as Circulation 1999; 100; 1823-1829 can be referred to for further details regarding this formalin fixation, hematoxylin-eosin staining and scoring). The scores for heart muscle cellular necrosis and inflammatory cellular invasion were evaluated independently by two observers and then averaged. Statistical analysis was performed using the one way analysis of variance (ANOVA) and Fisher's protected least significant difference test (documents such as StatVien, SAS Institute Inc., Cary, N.C., U.S.A., 1998 can be referred to for further details regarding these statistical analysis methods).
1+: Lesions in 25% or less of heart
2+: Lesions in more than 25% to 50% of heart
3+: Lesions in more than 50% to 75% of heart
4+: Lesions in more than 75% to 100% of heart
Data consisting of heart weight, body weight, heart weight/body weight ratio, heart muscle cellular necrosis and inflammatory cellular invasion measured in accordance with that described above is summarized in Table 1 below. Furthermore, the previously described survival rate data and data relating to heart muscle interferon production to be described later are also shown in Table 1.

For assay [2], the system named is EMC virus. Nature of the assay: Effect on intramyocardial cytokine production (ELISA) in a cardiac insufficiency model induced by EMC viral myocarditis in mice. As for the experimental part:
A comparative study was conducted on the effect of cetirizine on cytokine production within heart muscle in a cardiac insufficiency model induced by EMC viral myocarditis in mice.
28-day-old, male DBA/2 mice were divided into three groups, and EMC virus was inoculated intraperitoneally to all groups at 1 pfu/mouse (day 0) in the same manner as Example 1.
Following inoculation, similar to Example 1, a control group given only distilled water to serve as a control (n=10), a cetirizine low dose group to which cetirizine was administered at a dose of 1 mg/kg/day (n=10), and a cetirizine high dose group to which cetirizine was administered at 10 mg/kg/day (n=10), were forcibly fed once a day using a cannula in the same manner as Test Example 1 for 7 consecutive days. […]
The protein concentration of each cytokine was measured by ELISA using a commercially available kit (Circulation, 100: 1102-1108, 1999). […]
The total protein concentration of each supernatant was measured by the bicinchoninic acid (BCA) method followed by calculation of the ratio of cytokine concentration to total protein concentration (J. Am. Coll. Cardiol., 33: 1400-1407, 1999). Each cytokine protein concentration was expressed as pg/mg of total protein or ng/mg of total protein. […]

Assay [3] deals with EMC (encephalomyocarditis) virus. Nature of the assay: Effect on survival rate in a cardiac insufficiency model induced by EMC viral myocarditis in mice. To be noted: for Survival rate (day 14): DBA/2 mice, EMC virus 1 pfu/mouse i.p., n = 10, control 10%. The procedure: A comparative study was conducted on the effect of cetirizine on survival rate in a cardiac insufficiency model induced by EMC (encephalomyocarditis) viral myocarditis in mice.
28-day-old, male DBA/2 mice were divided into three groups, and EMC virus that causes myocarditis was inoculated intraperitoneally to all groups at 1 pfu/mouse (0.1 ml as phosphate-buffered saline (PBS)) (day 0)(pfu means plaque forming unit). The EMC virus used here was acquired from ATCC (American Type Culture Collection, Manassas, Va., U.S.A.), and said EMC virus was used after diluting with PBS.
Following inoculation, a control group given only distilled water to serve as a control (n=10), a cetirizine low dose group to which cetirizine dissolved in distilled water was administered at a dose of 1 mg/kg/day (n=10), and a cetirizine high dose group to which cetirizine dissolved in distilled water was administered at 10 mg/kg/day (n=10), were forcibly fed once a day using a cannula (Wakenyaku Co., Ltd.) for 14 consecutive days.
The survival rates of the above three groups after 14 days were compared according to the Kaplan-Meier method (documents such as StatView, SAS Institute Inc., Cary, N.C., U.S.A. 1988 can be referred to for further details regarding this Kaplan-Meier method).
Data are obtained by analyzing the results obtained above according to the Kaplan-Meier method.

Where [4] appears, read: 1 mg/kg/day oral, 5 days, n = 10, mean ± SD.
The mark [5] stands for this setting: 10 mg/kg/day oral, 5 days, n = 7, mean ± SD.
[6] abbreviates: score 0 to 4+ (share of heart with lesions), two observers averaged, 1 mg/kg/day oral, 5 days, n = 10, mean ± SD.

Take `O=C(O)COCCN1CCN(C(c2ccccc2)c2ccc(Cl)cc2)CC1` (racemic) [Cetirizine, (±)-[2-[4-[(4-chlorophenyl)phenylmethyl]-1-piperazinyl]ethoxy]acetic acid]: the “Histopathological changes of the heart (in words)” value with EMC virus [1] (1 and 10 mg/kg/day, day 5, dose-dependently) was “trend of diminished inflammatory cell invasion and necrosis”. Moreover, the “Heart weight (g) (day 5)” value in the assay on EMC virus [1] (setting [4]) is listed as 0.07 ± 0.008 g; in the assay with EMC virus [1] (setting [5]), 0.60 ± 0.006 g. The “Heart weight/body weight ratio (day 5)” value stood at 5.4 ± 1.1 in the assay on EMC virus [1] (setting [4]) and 5.1 ± 0.8 in the assay on EMC virus [1] (setting [5]). Further, in the assay with EMC virus [1] (setting [6]), the “Heart muscle cellular necrosis (day 5)” value is given as 1.8 ± 1.0. Besides, the “Inflammatory cellular invasion (day 5)” value with EMC virus [1] (setting [6]) is recorded as 2.3 ± 0.8. Besides, the “Intramyocardial IFN-γ (in words)” value in the assay on EMC virus [2] (7 days after virus inoculation, 1 and 10 mg/kg/day) is “concentration-dependent increase”. In addition, the “Heart muscle interferon-γ (day 7)” value in the assay with EMC virus [2] (ELISA of ventricle homogenate, relative to total protein, 1 mg/kg/day oral, 7 days, n = 10, mean ± SD, p < 0.05 vs. control) is recorded as 2.2 ± 1.0. Further, the “Effect on survival rate (in words)” value in assay [3] (1 and 10 mg/kg/day, 14 days, Kaplan-Meier, p<0.05) is “improved concentration-dependently”. The “Survival rate (day 14)” value in assay [3] (1 mg/kg/day oral, 14 days, 1 mg/kg/day) is reported as 40% (4/10); in assay [3] (1 mg/kg/day oral, 14 days, listed as cetirizine, 1 mg/kg/day) it was 40%; in assay [3] (10 mg/kg/day oral, 14 days, p < 0.05 vs. control, 10 mg/kg/day), 50% (5/10)*; in assay [3] (10 mg/kg/day oral, 14 days, p < 0.05 vs. control, listed as cetirizine, 10 mg/kg/day), 50%. In addition, in assay [3] (summary of Examples 1 and 2: improved mortality rate of mice and viral myocarditis), the “Overall efficacy against EMC viral infection / viral myocarditis (in words)” value is recorded as “effective against viral infection”.
